According to PMC9841532, “Exploring the Effect of Halogenation in a Series of Potent and Selective A2B Adenosine Receptor Antagonists” (Journal of Medicinal Chemistry, 2022):
In brackets after ≈: the same amount, converted by molar mass. Where two headings read alike, the source gives them in different places.

How the values were obtained:
hA2AAR = biological target: T1, hA2AAR (Homo sapiens, UniProt P29274); test: Radioligand binding competition, [3H]ZM241385, membranes from HeLa-A2A cells; conditions: 1 μM, [3H]ZM241385, human HeLa cells, n = 2
T1 construct: expressed in transfected cells; host or cells: HeLa (HeLa-A2A) cell membranes
T1 sequence (P29274 whole entry): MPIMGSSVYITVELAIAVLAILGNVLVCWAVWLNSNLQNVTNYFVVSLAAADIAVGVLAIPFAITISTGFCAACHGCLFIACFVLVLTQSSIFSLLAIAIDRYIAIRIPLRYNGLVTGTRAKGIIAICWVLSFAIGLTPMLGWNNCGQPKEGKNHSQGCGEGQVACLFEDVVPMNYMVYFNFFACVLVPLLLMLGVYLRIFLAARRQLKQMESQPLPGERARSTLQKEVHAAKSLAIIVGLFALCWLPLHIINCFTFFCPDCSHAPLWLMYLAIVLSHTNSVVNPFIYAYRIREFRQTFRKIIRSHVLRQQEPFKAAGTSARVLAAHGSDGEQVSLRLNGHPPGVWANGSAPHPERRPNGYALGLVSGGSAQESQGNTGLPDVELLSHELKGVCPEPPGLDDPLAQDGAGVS
Procedure, shortened: (§1)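 Racemates, plus selected enantiomers after chiral resolution, were tested at 25 °C, with a 60 min incubation for one subtype and 30 min for others. Non-specific binding was defined with 10 μM or 100 μM R-PIA. Bound radioactivity was counted after washing and filtration.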

[1] = Human microsomal stability; type: in vitro ADME; conditions: human microsomes; for microsomal stability percent (percentage remanent): sampling time 60 min; for microsomal CLint at 1 h / half-life at 1 h: human, pH 7.4; for microsomal CLint at 1 h: read-out: microsomal stability Clint (intrinsic clearance); for half-life at 1 h: read-out: microsomal stability t1/2
Protocol: The human microsomal stability of selected compounds was evaluated by following a previously described method.[31] The human microsomes employed were purchased from Tebu-Xenotech. The compound was incubated with the microsomes at 37 °C in a 50 mM phosphate buffer (pH = 7.4) containing 3 mM MgCl2, 1 mM NADP, 10 mM glucose-6-phosphate, and 1 U/mL glucose-6-phosphate-dehydrogenase. Samples (75 μL) were taken from each well at 0, 10, 20, 40, and 60 min and transferred to a plate containing 4 °C 75 μL acetonitrile and 30 μL of 0.5% formic acid in water was added for improving the chromatographic conditions. The plate was centrifuged (46,000 g, 30 min), and supernatants were taken and analyzed in a UPLC-MS/MS (Xevo TQD, Waters) by employing a BEH C18 column and an isocratic gradient of 0.1% formic acid in water:0.1% formic acid acetonitrile (60:40). The metabolic stability of the compounds was calculated from the logarithm of the remaining compounds at each of the time point studied.

hA1AR = biological target: T2, hA1AR (Homo sapiens, UniProt P30542); test: Radioligand binding competition, [3H]DPCPX, membranes from CHO-A1 cells; conditions: 1 μM, [3H]DPCPX, human CHO cells, n = 2
T2 sequence (P30542 1-326): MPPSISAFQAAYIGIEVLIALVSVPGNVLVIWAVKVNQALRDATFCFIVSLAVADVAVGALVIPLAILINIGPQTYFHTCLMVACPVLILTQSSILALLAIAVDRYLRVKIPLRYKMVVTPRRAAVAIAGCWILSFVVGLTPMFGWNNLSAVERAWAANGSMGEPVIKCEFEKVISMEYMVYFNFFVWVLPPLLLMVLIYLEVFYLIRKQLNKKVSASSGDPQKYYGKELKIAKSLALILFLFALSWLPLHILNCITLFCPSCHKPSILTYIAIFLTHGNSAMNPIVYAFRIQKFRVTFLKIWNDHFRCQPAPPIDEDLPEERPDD
Procedure, shortened: as §1

[2] = Solubility determination (nephelometry); type: physicochemical; conditions: 1:99 DMSO/PSB buffer, PBS pH 7, 37 °C
Protocol: The solubility of selected compounds was evaluated by following a previously described method.[31] A 10 mM stock solution of the compound was serially diluted in 100% DMSO, and 2.5 μL of this solution was added to a 384-well UV-transparent plate (Greiner) containing 47.5 μL of PBS (pH = 7). The plate was incubated at 37 °C for 4 h, and the light scattering was measured in a NEPHELOstar Plus reader (BMG LABTECH). The data was fitted to a segmented linear regression for measuring the compound solubility.

hA2BAR = biological target: T3, hA2BAR (Homo sapiens, UniProt P29275); test: Radioligand binding competition, [3H]DPCPX, membranes from HEK-293-A2B cells; design: Exp. dG: unit not given here; conditions: for Ki: read-out: Ki hA2B; for Exp. dG: experimental binding free energy, Supplementary Table S3, unit not given (errors in kcal/mol)
T3 construct: host or cells: HEK-293 (HEK-293-A2B) cell membranes
T3 sequence (P29275 1-332): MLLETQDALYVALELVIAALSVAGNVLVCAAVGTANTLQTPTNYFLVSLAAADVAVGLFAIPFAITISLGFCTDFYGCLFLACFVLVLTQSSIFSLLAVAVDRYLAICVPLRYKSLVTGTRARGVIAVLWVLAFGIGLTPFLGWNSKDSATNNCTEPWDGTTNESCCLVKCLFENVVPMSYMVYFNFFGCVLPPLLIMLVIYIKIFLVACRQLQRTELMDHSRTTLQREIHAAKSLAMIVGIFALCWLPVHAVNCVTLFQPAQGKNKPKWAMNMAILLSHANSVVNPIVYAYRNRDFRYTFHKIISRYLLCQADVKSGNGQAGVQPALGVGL
Procedure, shortened: as §1

CYP3A4 = biological target: T4, CYP3A4 (Homo sapiens, UniProt P08684); test: CYP3A4 inhibition (fluorescence, substrates DBF or 7-BFC); type: biochemical; conditions: for CYP3A4 % inh. at 10 μM, 7-BFC: substrate 7-benzyloxy-4-trifluoromethyl-coumarin; for IC50: IC50 obtained by extrapolation with analysis software, read-out: CYP3A4 IC50, DBF
T4 construct: host or cells: insect cell microsomes
T4 sequence (P08684 whole entry): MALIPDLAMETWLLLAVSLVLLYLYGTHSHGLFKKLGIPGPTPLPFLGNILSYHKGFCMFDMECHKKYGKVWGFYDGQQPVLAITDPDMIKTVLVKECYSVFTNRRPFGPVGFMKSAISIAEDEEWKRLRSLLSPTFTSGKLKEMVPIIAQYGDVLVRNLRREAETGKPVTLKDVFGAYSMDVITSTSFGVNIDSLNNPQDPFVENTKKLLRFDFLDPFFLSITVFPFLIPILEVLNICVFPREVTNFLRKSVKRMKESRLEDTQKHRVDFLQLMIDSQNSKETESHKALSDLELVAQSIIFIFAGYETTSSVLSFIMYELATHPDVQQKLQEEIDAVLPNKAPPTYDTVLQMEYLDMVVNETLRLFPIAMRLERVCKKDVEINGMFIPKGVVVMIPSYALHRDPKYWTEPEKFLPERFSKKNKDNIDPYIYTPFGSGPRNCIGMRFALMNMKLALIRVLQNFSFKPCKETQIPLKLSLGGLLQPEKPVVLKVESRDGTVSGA
Protocol: To identify potential metabolic liabilities within the series here documented, the selected A2BAR antagonists were tested in vitro for CYP3A4 inhibitory activity.
The inhibitory activity of selected compounds was evaluated by following a previously described method.[31] […] The plate was then pre-incubated at 37 °C for 5 min and the reaction initiated by the addition of a pre-warmed enzyme/substrate (E/S) mix. The E/S mix contained buffer (KH2PO4), c-DNA-expressed P450 in insect cell microsomes, substrate (DBF: dibenzylfluorescein or 7-BFC: 7-benzyloxy-4-trifluoromethyl-coumarin) and other components to give the final assay concentrations in a reaction volume of 200 μL. Reactions were terminated after various times (a specific time for each cytochrome) by addition of STOP solution (ACN/Tris–HCl 0.5 M 80:20, and NaOH 2 N for CYP3A4). Fluorescence per well was measured using a fluorescence plate reader (Tecan Infinite M1000 PRO), and percentage of inhibition was calculated. In silico predictions were performed using free web-based models (FAME 3, SmartCYP, and Xenosite).[62]−[64]

[3] = displacement of specific [3H]DPCPX binding in human HEK-293 cells, n = 3

SMILES	% at 1 μM hA2A (percentage displacement of specific binding) (hA2AAR) [%]	microsomal stability percent (percentage remanent) [1] [%]	microsomal CLint at 1 h [1] [µL/min/mg]	half-life at 1 h [1] [min]	% at 1 μM hA1 (percentage displacement of specific binding) (hA1AR) [%]	solubility at 4 h [2] [µM]	Ki (hA2BAR; [3]) [nM]	Ki (hA2BAR) [nM]	CYP3A4 % inh. at 10 μM, 7-BFC (CYP3A4; 10 μM) [%]	IC50 (CYP3A4; substrate dibenzylfluorescein) [nM]	Exp. dG (hA2BAR)	CYP3A4 % inh. at 10 μM, DBF (CYP3A4; 10 μM, substrate dibenzylfluorescein) [%]
CC1=C(C(=O)OC(C)C)C(c2ccco2)n2c(nc3cc(Br)ccc32)N1 (centres unmarked) [16r]	2	32.13	14.2	36.8	25	70.7 (≈ 29.4 µg/mL)	5.23 ± 0.4	< 10	52	2260 ± 300		
CC1=C(C(=O)OC(C)C)C(c2ccco2)n2c(nc3cc(F)ccc32)N1 (centres unmarked) [16b]	2	19.83	20.1	27.4	11	47.5 (≈ 16.9 µg/mL)	3.05 ± 0.7	< 10	63		-11.61	40
CC1=C(C(=O)OC(C)C)C(c2ccco2)n2c(nc3cc(Cl)ccc32)N1 (centres unmarked) [16j]	24	22.75	18.6	28.1	35	23.7 (≈ 8.81 µg/mL)	5.03 ± 0.3	< 10	54	3680 ± 470	-11.31	
